Source: US20030044399A1, “Method of treatment” (SmithKline Beecham Corporation, priority 1998, published 2003)

These molecules were tested against Rhodazain (Trypanosoma brucei rhodesiense, UniProt Q95PM0) (assay: Cysteine protease inhibition, progress curve method, rhodazain). Conditions: 10 uM Cbz-Leu-Arg-AMC, 100 mM Na acetate pH 5.5, 5 mM cysteine; read-out: Rhodazain Ki.
Assay type: biochemical, Trypanosoma brucei rhodesiensi
Procedure: (§1) Standard assay conditions for the determination of kinetic constants used 10 uM fluorogenic peptide substrate, Cbz-Phe-Arg-AMC for the cysteine proteases from Leishmania spp and Schistosoma Mansoni, Cbz-Leu-Arg-AMC for the cysteine proteases from Plasmodium falciparum and Trypanosoma brucei rhodesiensi, and Ac-Lys-Glu-Lys-Leu-Arg-AMC (4 uM final substrate concentration) for the cysteine protease from Trypoanosoma cruzi, and were determined in 100 mM Na acetate at pH 5.5 containing 5 mM cysteine. Stock substrate solutions were prepared at concentrations of […] in DMSO with 10 uM (4 uM for Ac-Lys-Glu-Lys-Leu-Arg-AMC) final substrate concentration in the assays. The final DMSO concentration was 2% and the final volume was 100 uL. All assays were conducted at ambient temperature. Product progress curves were generated over 20 to 30 minutes following formation of AMC product.
(§2) Potential inhibitors were evaluated using the progress curve method. Assays were carried out in the presence of variable concentrations of test compound. Reactions were initiated by addition of enzyme to buffered solutions of inhibitor and substrate. Data analysis was conducted according to one of two procedures depending on the appearance of the progress curves in the presence of inhibitors. For those compounds whose progress curves were linear, apparent inhibition constants (Ki,app) were calculated according to equation 1 (Brandt et al., Biochemitsry, 1989, 28, 140):
(§3) v=VmA/[Ka(1+I/Ki,app)+A] (1)
(§4) Where v is the velocity of the reaction with maximal velocity Vm, A is the concentration of substrate with Michaelis constant of Ka, and I is the concentration of inhibitor.
(§5) [AMC]=vsst+(v0−vss)[1−exp (−kobst)]/kobs (2)
(§6) Where [AMC] is the concentration of product formed over time t, v0 is the initial reaction velocity and vss is the final steady state rate. Values for kobs were then analyzed as a linear function of inhibitor concentration to generate an apparent second order rate constant (kobs/inhibitor concentration or kobs/[I]) describing the time-dependent inhibition. A complete discussion of this kinetic treatment has been fully described (Morrison et al., Adv. Enzymol. Relat. Areas Mol. Biol., 1988, 61, 201).
(§7) Exemplary inhibition data for the compounds used in the present method collected in accordance with the above-described procedure are listed in Table I.

Sequence of Rhodazain (Q95PM0 entry or part of it): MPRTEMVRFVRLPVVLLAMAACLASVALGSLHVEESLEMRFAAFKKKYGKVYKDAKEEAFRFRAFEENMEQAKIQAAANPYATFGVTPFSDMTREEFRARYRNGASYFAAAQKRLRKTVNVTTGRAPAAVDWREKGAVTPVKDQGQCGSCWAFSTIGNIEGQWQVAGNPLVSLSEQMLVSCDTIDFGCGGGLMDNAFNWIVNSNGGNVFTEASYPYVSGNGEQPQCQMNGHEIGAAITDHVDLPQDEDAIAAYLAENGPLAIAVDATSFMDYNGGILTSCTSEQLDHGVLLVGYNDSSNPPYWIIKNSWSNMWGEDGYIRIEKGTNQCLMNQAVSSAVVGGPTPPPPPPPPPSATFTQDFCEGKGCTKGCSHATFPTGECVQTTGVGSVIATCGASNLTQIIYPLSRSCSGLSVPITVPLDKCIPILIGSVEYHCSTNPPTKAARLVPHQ

Molecule | Ki [nM]
Naphthyridine-2-carboxylic acid {(S)-3-methyl-1-[3-oxo-1-(pyridine-2-sulfonyl)-azepan-4-ylcarbamoyl]-butyl}-amide [Example 177] | 9

Same assay, conditions: Rhodazain Ki (nM), 10 uM Cbz-Leu-Arg-AMC, 100 mM Na acetate pH 5.5, 5 mM cysteine

Molecule | Ki [nM]
Cc1c(C(=O)N[C@@H](CC(C)C)C(=O)N[C@H]2CCCN(S(=O)(=O)c3nccs3)CC2=O)oc2ccccc12 [Example 126, 3-Methylbenzofuran-2-carboxylic acid {(S)-3-methyl-1-[3-oxo-1-(thiazole-2-sulfonyl)-azepan-4-ylcarbamoyl]-butyl}amide] | 3.8
Cc1oc(-c2ccccc2)nc1C(=O)N[C@@H](CC(C)C)C(=O)NC1CCCN(S(=O)(=O)c2ccccn2)CC1=O (stereo partly drawn) [Example 106, 5-Methyl-2-phenyl-oxazole-4-carboxylic acid {(S)-3-methyl-1-[3-oxo-1-(pyridine-2-sulfonyl)-azepan-4-ylcarbamoyl]-butyl}amide] | 5.8
Cc1c(C(=O)N[C@H](CC(C)C)C(=O)NC2CCCN(S(=O)(=O)c3cccc[n+]3[O-])CC2=O)oc2ccccc12 (stereo partly drawn) [Example 57, 3-Methyl-benzofuran-2-carboxylic acid {(S)-3-methyl-1-[3-oxo-1-(1-oxy-pyridine-2-sulfonyl)-azepan-4-ylcarbamoyl]-butyl}amide] | 5.4
Cc1c(C(=O)N[C@H](CC(C)C)C(=O)N[C@H]2CCCN(S(=O)(=O)c3cccc[n+]3[O-])CC2=O)oc2cc(F)ccc12 [Example 193, 6-Fluoro-3-methyl-benzofuran-2-carboxylic acid {(S)-3-methyl-1-[3-oxo-1-(1-oxy-pyridine-2-sulfonyl)-azepan-4-ylcarbamoyl]-butyl}-amide] | 8.1
CC(C)C[C@H](NC(=O)c1cnc2ccccc2n1)C(=O)N[C@H]1CCCN(S(=O)(=O)c2nccs2)CC1=O [Example 129, Quinoxaline-2-carboxylic acid {(S)-3-methyl-1-[3-oxo-1-(thiazole-2-sulfonyl)-azepan-4-ylcarbamoyl]-butyl}amide] | 5.6
CC(C)CC(NC(=O)c1ccco1)C(=O)N[C@@H]1CCCN(S(=O)(=O)c2cccc[n+]2[O-])CC1=O (stereo partly drawn) [Example 75, Furan-2-carboxylic acid {(S)-3-methyl-1-[3-oxo-1-(1-oxy-pyridine-2-sulfonyl)-azepan-4-ylcarbamoyl]-butyl}amide] | 7.5
COc1ccc2c(C)c(C(=O)N[C@@H](CC(C)C)C(=O)N[C@H]3CCN(S(=O)(=O)c4cccc[n+]4[O-])CCC3=O)oc2c1 [Example 204, 6-Methoxy-3-methyl-benzofuran-2-carboxylic acid {(S)-3-methyl-1-[3-oxo-1-(1-oxy-pyridine-2-sulfonyl)-azepan-4-ylcarbamoyl]-butyl}-amide] | 4.5
CC(C)C[C@@H](NC(=O)c1cnc2ccccc2n1)C(=O)N[C@@H]1CCCN(S(=O)(=O)c2cccc[n+]2[O-])CC1=O [Example 101, Quinoxaline-2-carboxylic acid {(S)-3-methyl-1-[3-oxo-1-(1-oxy-pyridine-2-sulfonyl)-azepan-4-ylcarbamoyl]-butyl}amide] | 11
O=C(N[C@H](Cc1ccccc1)C(=O)N[C@@H]1CCCN(S(=O)(=O)c2ccccn2)CC1=O)c1ccc2ccccc2n1 (stereo in doubt) [Example 180, Quinoline-2-carboxylic acid {(S)-1-[3-oxo-1-(pyridine-2-sulfonyl)-azepan-4-ylcarbamoyl]-2-phenyl-ethyl}-amide] | 9.3
O=C(N[C@@H](Cc1ccccc1)C(=O)NC1CCCN(S(=O)(=O)c2ccccn2)CC1=O)c1cccc2cccnc12 (stereo partly drawn) [Example 176, Quinoline-8-carboxylic acid {(S)-1-[3-oxo-1-(pyridine-2-sulfonyl)-azepan-4-ylcarbamoyl]-2-phenyl-ethyl}-amide] | 5.9
CC(C)C[C@@H](NC(=O)c1cnc2ccccc2c1)C(=O)N[C@@H]1CCCN(S(=O)(=O)c2ccccn2)CC1=O [Example 27] | 13
CCc1c(C(=O)N[C@@H](CC(C)C)C(=O)N[C@H]2CCN(S(=O)(=O)c3cccc[n+]3[O-])CCC2=O)oc2ccccc12 [Example 202, 3-Ethyl-benzofuran-2-carboxylic acid {(S)-3-methyl-1-[3-oxo-1-(1-oxy-pyridine-2-sulfonyl)-azepan-4-ylcarbamoyl]-butyl}-amide] | 8.7
CC(C)C[C@@H](NC(=O)c1ccc(-c2cccc(C(F)(F)F)c2)o1)C(=O)NC1CCCN(C(=O)c2cccc[n+]2[O-])CC1=O (stereo partly drawn) [Example 186, 5-(3-Trifluoromethyl-phenyl)-furan-2-carboxylic acid ((S)-3-methyl-1-{3-oxo-1[-1-(1-oxy-pyridin-2-yl)-methanoyl]-azepan-4-ylcarbamoyl}-butyl)-amide] | 11
COc1ccc2oc(C(=O)N[C@@H](CC(C)C)C(=O)N[C@H]3CCCN(S(C)(=O)=O)CC3=O)cc2c1 [Example 81, 5-Methoxy-benzofuran-2-carboxylic acid [(S)-1-(1-methanesulfonyl-3-oxo-azepan-4-ylcarbamoyl)-3-methyl-butyl]-amide] | 7.2
COc1ccc(CC(=O)N[C@@H](CC(C)C)C(=O)NC2CCCN(S(=O)(=O)c3ccccn3)CC2=O)cc1OCc1ccccc1 (stereo partly shown) [Example 123] | 31
CC(C)C[C@@H](NC(=O)c1cc2cc(F)ccc2o1)C(=O)N[C@@H]1CCCN(S(=O)(=O)c2ccccn2)CC1=O (single isomer, unassigned) [Example 168] | 2.7
CC(C)C[C@@H](NC(=O)c1ccc2ccccc2c1)C(=O)N[C@@H]1CCCN(S(=O)(=O)c2ccccn2)CC1=O (stereo in doubt) [Example 17, Naphthalene-2-carboxylic acid {(S)-3-methyl-1-[3-oxo-1-(pyridine-2-sulfonyl)-azepan-4-ylcarbamoyl]butyl}-amide] | 8.3
CC(C)C[C@@H](NC(=O)c1cc2sccc2s1)C(=O)N[C@@H]1CCCN(S(=O)(=O)c2cccc[n+]2[O-])CC1=O [Example 62, Thieno[3,2-b]thiophene-2-carboxylic acid {(S)-3-methyl-1-[3-oxo-1-(1-oxy-pyridine-2-sulfonyl)-azepan-4-ylcarbamoyl]-butyl}amide] | 5.3
COc1ccc(CCCCC(=O)NC(CC(C)C)C(=O)NC2CCCN(S(=O)(=O)c3ccccn3)CC2=O)cc1 [Example 122, (S)-2-[5-(4-Methoxy-phenyl)-pentanoylamniol-4-methyl-pentanoic acid [3-oxo-1-(pyridine-2-sulfonyl)-azepan-4-yl[-amide] | 8.8
CC(C)C[C@@H](NC(=O)c1ccc(-c2ccc([N+](=O)[O-])cc2)o1)C(=O)N[C@@H]1CCCN(S(=O)(=O)c2ccccn2)CC1=O (stereo in doubt) [Example 36, 5-(4-Nitro-phenyl)-furan-2-carboxylic acid {(S)-3-methyl-1-[3-oxo-1-(pyridine-2-sulfonyl)-azepan-4-ylcarbamoyl]-butyl}amide] | 9.1
Cc1coc(C(=O)N[C@@H](CC(C)C)C(=O)N[C@H]2CCCN(C(=O)Nc3ccccc3F)CC2=O)c1 [Example 222, 4-Methyl-furan-2-carboxylic acid {(S)-1-[1-(2-fluoro-phenylcarbamoyl)-3-oxo-azepan-4-ylcarbamoyl]-3-methyl-butyl}-amide] | 4.9
CC(C)C[C@H](NC(=O)c1ccc(-c2ccc(Cl)cc2)o1)C(=O)N[C@@H]1CCCN(S(=O)(=O)c2ccccn2)CC1=O [Example 65, 5-(4-Chloro-phenyl)-furan-2-carboxylic acid {(S)-3-methyl-1-[3-oxo-1-(pyridine-2-sulfonyl)-azepan-4-ylcarbamoyl]-butyl}amide] | 8.1
CC(C)C[C@@H](NC(=O)c1cc2cc(F)ccc2o1)C(=O)N[C@H]1CCCN(S(=O)(=O)c2ccccn2)CC1=O (stereo in doubt) [Example 166, 5-Fluoro-benzofuran-2-carboxylic acid {(S)-3-methyl-1-[3-oxo-1-(pyridine-2-sulfonyl)-azepan-4-ylcarbamoyl]-butyl}-amide] | 6
CC(C)C[C@H](NC(=O)c1cc2ccccc2o1)C(=O)N[C@@H]1CCCN(S(C)(=O)=O)CC1=O [Example 112, Benzofuran-2-carboxylic acid-{(S)-1-(1-methanesulfonyl-3-oxo-azepan-4-ylcarbamoyl)-3-methyl-butyl]-amide] | 8.5

Each molecule was assayed against Cruzain (Trypanosoma cruzi, UniProt P25779) (assay: Cysteine protease inhibition, progress curve method, cruzain). Conditions: 4 uM Ac-Lys-Glu-Lys-Leu-Arg-AMC, 100 mM Na acetate pH 5.5, 5 mM cysteine; read-out: Cruzain Ki.
Assay type: biochemical
Procedure: as §1, §2, §3, §4, §5, §6, §7

Sequence of Cruzain (P25779 123-337): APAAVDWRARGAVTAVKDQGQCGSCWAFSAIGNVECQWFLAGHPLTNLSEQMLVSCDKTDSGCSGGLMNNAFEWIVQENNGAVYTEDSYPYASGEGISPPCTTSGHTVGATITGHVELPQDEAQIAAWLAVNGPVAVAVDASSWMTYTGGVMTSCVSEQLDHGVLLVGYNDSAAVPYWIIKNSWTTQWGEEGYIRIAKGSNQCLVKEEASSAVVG

Molecule | Ki [nM]
Cc1c(C(=O)N[C@@H](CC(C)C)C(=O)N[C@H]2CCCN(S(=O)(=O)c3nccs3)CC2=O)oc2ccccc12 [Example 126, 3-Methylbenzofuran-2-carboxylic acid {(S)-3-methyl-1-[3-oxo-1-(thiazole-2-sulfonyl)-azepan-4-ylcarbamoyl]-butyl}amide] | 4.3
Cc1oc(-c2ccccc2)nc1C(=O)N[C@@H](CC(C)C)C(=O)NC1CCCN(S(=O)(=O)c2ccccn2)CC1=O (stereo partly drawn) [Example 106, 5-Methyl-2-phenyl-oxazole-4-carboxylic acid {(S)-3-methyl-1-[3-oxo-1-(pyridine-2-sulfonyl)-azepan-4-ylcarbamoyl]-butyl}amide] | 16
Cc1c(C(=O)N[C@H](CC(C)C)C(=O)NC2CCCN(S(=O)(=O)c3cccc[n+]3[O-])CC2=O)oc2ccccc12 (stereo partly drawn) [Example 57, 3-Methyl-benzofuran-2-carboxylic acid {(S)-3-methyl-1-[3-oxo-1-(1-oxy-pyridine-2-sulfonyl)-azepan-4-ylcarbamoyl]-butyl}amide] | 10
